# Test system: H1299 NSCLC (non-small cell lung cancer) cells
# Assay: Cancer cell growth inhibition (MTS)
# Format: cell-based
# Conditions: Homo sapiens, NCI-H1299, 48 hours, MTS reagent
# Protocol: To investigate the inhibitory effect of the compounds of Examples of the present invention on cancer cell growth, the following experiment was performed. Particularly, H1299 NSCLC (non-small cell lung cancer) cells were distributed in a 96-well plate at the density of 5×10^3 cells/well, followed by culture in a 37° C., 5% CO2 incubator for 24 hours. The compound of each example was dissolved in DMSO (10 nM, 100 nM, 1 μM, 10 μM), which was treated to each well. 48 hours later, cell growth was measured by using MTS reagent (3-(4,5-dimethylthiazole-2-yl)-5-(3-carboxymethoxyphenyl)-2-(4-sulfophenyl)-2H-tetrazolium). The experiment was performed in triplicate and the standard error of the analysis result was corrected.
row,Compound,IC50 [nM]
1,"COc1cc2c(cc1OC)[C@H](C(=O)c1ccc3c(c1)C=CC(C)(C)O3)CCO2 (stereo in doubt) [Example 26, (6,7-Dimethoxychroman-4-yl) (2,2-dimethyl-2H-chromen-6-yl)methanone]",3800
2,"COc1cc2c(cc1OC)[C@@H]1C(=O)c3ccc4c(c3O[C@@H]1CO2)C=CC(C)(C)O4 [Comparative Example 1 (Deguelin), (7aS,13aS)-9,10-Dimethoxy-3,3-dimethyl-13,13a-dihydro-3H-chromeno[3,4-b]pyrano[2,3-h]chromen-7(7aH)-one, reference compound]",110
3,"CC1(C)C=Cc2c(ccc3c2O[C@@H]2COc4cc(O)c(O)cc4[C@@H]2C3=O)O1 [Example 4, (7aS,13aS)-13,13a-Dihydro-9,10-dihydroxy-3,3-dimethyl-3H-chromeno[3,4-b]pyrano[2,3-h]chromen-7(7aH)-one]",970
4,"COc1cc2c(cc1OC)-c1c(oc3c4c(ccc3c1=O)OC(C)(C)C=C4)CO2 [Example 5, 9,10-Dimethoxy-3,3-dimethyl-3H-chromeno[3,4-b]pyrano[2,3-h]chromen-7-(13H)-one]",10100
5,"COc1cc2c(cc1OC)[C@@H]1Cc3ccc4c(c3O[C@@H]1CO2)C=CC(C)(C)O4 [Example 7, (7aS,13aS)-9,10-Dimethoxy-3,3-dimethyl-7,7a,13,13a-tetrahydro-3H-chromeno[3,4-b]pyrano[2,3-h]chromene]",4200
6,"CCO[C@@H]1c2ccc3c(c2O[C@@H]2COc4cc(OC)c(OC)cc4[C@H]12)C=CC(C)(C)O3 [Example 9, (7S,7aR,3aS)-9,10-Dimethoxy-3,3-dimethyl-7-ethoxy-7,7a,13,13a-tetrahydro-3H-chromeno[3,4-b]pyrano[2,3-h]chromene]",9800
7,"CCCO[C@@H]1c2ccc3c(c2O[C@@H]2COc4cc(OC)c(OC)cc4[C@H]12)C=CC(C)(C)O3 [Example 10, (7S,7aR,3aS)-9,10-Dimethoxy-3,3-dimethyl-7-propoxy-7,7a,13,13a-tetrahydro-3H-chromeno[3,4-b]pyrano[2,3-h]chromene]",10500
8,"COc1cc2c(cc1OC)[C@@H]1[C@H](OC(C)=O)c3ccc4c(c3O[C@@H]1CO2)C=CC(C)(C)O4 [Example 13, (7S,7aS,13aS)-9,10-Dimethoxy-3,3-dimethyl-7,7a,13,13a-tetrahydro-3H-chromeno[3,4-b]pyrano[2,3,h]chromen-7-yl acetate]",680
9,"COc1cc2c(cc1OC)[C@@H]1/C(=N/O)c3ccc4c(c3O[C@@H]1CO2)C=CC(C)(C)O4 [Example 16, (7aR,13aS)-9,10-Dimethoxy-3,3-dimethyl-13,13a-dihydro-3H-chromeno[3,4-b]pyrano[2,3-h]chromen-7(7aH)-one oxime]",300
10,"CO/N=C1\c2ccc3c(c2O[C@@H]2COc4cc(OC)c(OC)cc4[C@H]12)C=CC(C)(C)O3 [Example 17, (7aR,13aS)-9,10-Dimethoxy-3,3-dimethyl-13,13a-dihydro-3H-chromeno[3,4-b]pyrano[2,3-h]chromen-7(7aH)-one O-methyloxime]",4300
11,"COc1cc2c(cc1OC)[C@@H]1C(=O)c3ccc(OC)c(CC=C(C)C)c3O[C@@H]1CO2 [Example 21, 2,3,9-Trimethoxy-8-(3-methyl-but-2-enyl)-6a,12a-dihydro-6H-chromeno[3,4-b]chromen-12-one]",5200
12,"COc1ccc([C@H]2COc3c(ccc4c3C=CC(C)(C)O4)C2=O)cc1OC [Example 25, (3S)-3-(3,4-Dimethoxyphenyl)-8,8-dimethyl-2,3-dihydro-4H,8H-pyrano[2,3-f]chromen-4-one]",4500
13,"COc1ccc(CC(=O)c2ccc3c(c2)C=CC(C)(C)O3)cc1OC [Example 27, 2-(3,4-Dimethoxyphenyl)-1-(2,2-dimethyl-2H-chromen-6-yl)ethanone]",1000
14,"COc1ccc(C(C)C(=O)c2ccc3c(c2OC)C=CC(C)(C)O3)cc1OC (stereo not drawn) [Example 29, 2-(3,4-Dimethoxyphenyl)-1-(5-methoxy-2,2-dimethyl-2H-chromen-6-yl)propan-1-one]",730
15,"COc1ccc(C(C)(C)C(=O)c2ccc3c(c2OC)C=CC(C)(C)O3)cc1OC [Example 30, 2-(3,4-Dimethoxyphenyl)-1-(5-methoxy-2,2-dimethyl-2H-chromen-6-yl)-2-methylpropan-1-one]",3200
16,COc1ccc(C2(C(=O)c3ccc4c(c3OC)C=CC(C)(C)O4)CC2)cc1OC [Example 32],102000
17,"COc1ccc([C@H](C)C(=O)c2ccc3c(c2OC)C=CC(C)(C)O3)cc1OC [Example 33, (S)-2-(3,4-Dimethoxyphenyl)-1-(5-methoxy-2,2-dimethyl-2H-chromen-6-yl)propan-1-one]",490
18,"COc1ccc([C@@H](C)C(=O)c2ccc3c(c2OC)C=CC(C)(C)O3)cc1OC [Example 34, (R)-2-(3,4-Dimethoxyphenyl)-1-(5-methoxy-2,2-dimethyl-2H-chromen-6-yl)propan-1-one]",1300

# Test system: HIF-1α
# Assay: HIF-1α inhibitory activity, hypoxia-response element-luciferase in HRE-A549 cells
# Format: cell-based
# Conditions: HIF-1α inhibition, HRE-A549
# Protocol: HRE-A549 cells stably transfected with hypoxia-response element-luciferase construct were incubated in Dulbecco's modified Eagle's medium. Following overnight serum deprivation, the cells were treated with or without Deguelin or example compounds. After 1 h incubation, the cells were incubated in hypoxia-chamber for 24 h at 37° C. Luciferase activity was measured by adding luciferase assay reagent (Promega, Madison, Wis.).
row,Compound,times lower concentration compared to Comparative Example 1 (Deguelin)
1,"COc1c(C(=O)Cc2ccccc2F)ccc2c1C=CC(C)(C)O2 [Example 67, 2-(2-fluorophenyl)-1-(5-methoxy-2,2-dimethyl-2H-chromen-6-yl)ethanone]",2

# Same assay, conditions: HRE-A549 cells, hypoxia-chamber 24 h, luciferase activity
row,Compound,IC50 [nM]
1,"COc1cc2c(cc1OC)[C@@H]1C(=O)c3ccc4c(c3O[C@@H]1CO2)C=CC(C)(C)O4 [Comparative Example 1 (Deguelin), (7aS,13aS)-9,10-Dimethoxy-3,3-dimethyl-13,13a-dihydro-3H-chromeno[3,4-b]pyrano[2,3-h]chromen-7(7aH)-one, reference compound]",166

# Same assay, conditions: HRE-A549 cells, hypoxia-chamber 24 h, luciferase activity; read-out: IC50
row,Compound,IC50 [nM]
1,"COc1c(C(=O)Cc2ccc(F)c(F)c2)ccc2c1C=CC(C)(C)O2 [Example 56, 2-(3,4-difluorophenyl)-1-(5-methoxy-2,2-dimethyl-2H-chromen-6-yl)ethanone]",1280
2,"COc1c(C(=O)Cc2ccc3c(c2)OCCO3)ccc2c1C=CC(C)(C)O2 [Example 58, 2-(2,3-dihydrobenzo[b][1,4]dioxin-6-yl)-1-(5-methoxy-2,2-dimethyl-2H-chromen-6-yl)ethanone]",1330
3,"COc1c(C(=O)Cc2ccccc2)ccc2c1C=CC(C)(C)O2 [Example 59, 1-(5-methoxy-2,2-dimethyl-2H-chromen-6-yl)-2-phenylethanone]",883
4,"COc1c(C(=O)Cc2ccccc2Cl)ccc2c1C=CC(C)(C)O2 [Example 64, 2-(2-chlorophenyl)-1-(5-methoxy-2,2-dimethyl-2H-chromen-6-yl)ethanone]",334
5,"COc1c(C(=O)Cc2cccc(F)c2)ccc2c1C=CC(C)(C)O2 [Example 66, 2-(3-fluorophenyl)-1-(5-methoxy-2,2-dimethyl-2H-chromen-6-yl)ethanone]",363
6,"COc1c(C(=O)Cc2ccccc2F)ccc2c1C=CC(C)(C)O2 [Example 67, 2-(2-fluorophenyl)-1-(5-methoxy-2,2-dimethyl-2H-chromen-6-yl)ethanone]",78.8
7,"COc1c(C(=O)Cc2cccc(Cl)c2)ccc2c1C=CC(C)(C)O2 [Example 68, 2-(3-chlorophenyl)-1-(5-methoxy-2,2-dimethyl-2H-chromen-6-yl)ethanone]",611
8,"COc1c(C(=O)Cc2ccccc2C(F)(F)F)ccc2c1C=CC(C)(C)O2 [Example 69, 1-(5-methoxy-2,2-dimethyl-2H-chromen-6-yl)-2-(2-(trifluoromethyl)phenyl)ethanone]",2140
9,"COc1c(C(=O)Cc2ccc(C#N)cc2)ccc2c1C=CC(C)(C)O2 [Example 72, 4-(2-(5-methoxy-2,2-dimethyl-2H-chromen-6-yl)-2-oxoethyl)benzonitrile]",1240
10,"COc1c(C(=O)Cc2ccc(F)cc2)ccc2c1C=CC(C)(C)O2 [Example 73, 2-(4-fluorophenyl)-1-(5-methoxy-2,2-dimethyl-2H-chromen-6-yl)ethanone]",1030
11,"COc1c(C(=O)Cc2ccc(Cl)cc2)ccc2c1C=CC(C)(C)O2 [Example 74, 2-(4-chlorophenyl)-1-(5-W methoxy-2,2-dimethyl-2H-chromen-6-yl)ethanone]",1270
12,"COc1c(C(=O)Cc2ccc(C(F)(F)F)cc2)ccc2c1C=CC(C)(C)O2 [Example 75, 1-(5-methoxy-2,2-dimethyl-2H-chromen-6-yl)-2-(4-(trifluoromethyl)phenyl)ethanone]",604
13,"COc1cccc(CC(=O)c2ccc3c(c2OC)C=CC(C)(C)O3)c1 [Example 76, 1-(5-methoxy-2,2-dimethyl-2H-chromen-6-yl)-2-(3-methoxyphenyl)ethanone]",830
14,"COc1c(C(=O)Cc2cccc(O)c2)ccc2c1C=CC(C)(C)O2 [Example 83, 2-(3-hydroxyphenyl)-1-(5-methoxy-2,2-dimethyl-2H-chromen-6-yl)ethanone]",1450
15,"COc1c(C(=O)Cc2ccccc2O)ccc2c1C=CC(C)(C)O2 [Example 84, 2-(2-hydroxyphenyl)-1-(5-methoxy-2,2-dimethyl-2H-chromen-6-yl)ethanone]",943
16,"COc1c(C(=O)Cc2ccc(O)cc2)ccc2c1C=CC(C)(C)O2 [Example 85, 2-(4-hydroxyphenyl)-1-(5-methoxy-2,2-dimethyl-2H-chromen-6-yl)ethanone]",791
